Active and inactive are the calls of the source.
How the values were obtained:
[1] = biological target: T1, Ribosomal protein S6 kinase alpha-3 (Homo sapiens, UniProt P51812); experiment: Inhibition of RSK2-mediated GSK3-beta Ser9 phosphorylation in TPA-induced human MCF7 cells at 10 nM pretreated for 30 mins by immunoblotting; type: cell-based
[2] = biological target: T2, Aurora kinase A (Homo sapiens) (UniProt O14965); experiment: Inhibition of Aurora kinase A assessed as inhibition of substrate phosphorylation using fluorescent peptide substrate up to 100 uM by microplate reader assay
T2 sequence (whole entry): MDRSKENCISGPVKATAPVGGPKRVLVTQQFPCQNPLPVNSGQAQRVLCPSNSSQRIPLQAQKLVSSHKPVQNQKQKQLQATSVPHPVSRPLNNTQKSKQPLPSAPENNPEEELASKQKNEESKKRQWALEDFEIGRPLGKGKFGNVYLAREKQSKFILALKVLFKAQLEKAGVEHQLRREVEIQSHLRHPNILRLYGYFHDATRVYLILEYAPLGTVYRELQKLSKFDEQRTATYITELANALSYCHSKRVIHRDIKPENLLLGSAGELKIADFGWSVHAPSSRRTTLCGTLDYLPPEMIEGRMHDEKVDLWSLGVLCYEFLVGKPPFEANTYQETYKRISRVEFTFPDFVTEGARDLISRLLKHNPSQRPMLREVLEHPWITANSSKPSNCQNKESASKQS

MCF-10A = experiment: Antiproliferative activity against human MCF10A cells assessed as reduction in cell viability after 48 hrs celltiter glo assay; type: cell-based
[3] = biological target: T3, Serine/threonine-protein kinase Chk1 (Homo sapiens, UniProt O14757)
T3 sequence (O14757 whole entry): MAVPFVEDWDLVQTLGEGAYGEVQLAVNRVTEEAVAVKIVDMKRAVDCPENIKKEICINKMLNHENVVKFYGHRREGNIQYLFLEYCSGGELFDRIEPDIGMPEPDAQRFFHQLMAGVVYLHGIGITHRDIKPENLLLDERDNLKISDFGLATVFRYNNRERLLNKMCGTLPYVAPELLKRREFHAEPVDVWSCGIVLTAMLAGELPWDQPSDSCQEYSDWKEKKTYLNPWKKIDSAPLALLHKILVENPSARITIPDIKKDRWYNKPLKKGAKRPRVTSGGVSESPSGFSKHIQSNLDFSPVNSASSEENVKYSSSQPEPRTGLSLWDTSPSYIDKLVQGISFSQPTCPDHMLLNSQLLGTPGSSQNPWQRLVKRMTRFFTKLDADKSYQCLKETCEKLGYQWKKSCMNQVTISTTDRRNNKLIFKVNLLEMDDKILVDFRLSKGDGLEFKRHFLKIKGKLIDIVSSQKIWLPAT
Description: Inhibition of CHK1 assessed as inhibition of substrate phosphorylation using fluorescent peptide substrate by microplate reader assay

[4] = biological target: Serine/threonine-protein kinase Chk2 (Homo sapiens, UniProt O96017)
Description: Inhibition of CHK2 assessed as inhibition of substrate phosphorylation using fluorescent peptide substrate by microplate reader assay

MCF7 = experiment: Antiproliferative activity against human MCF7 cells assessed as reduction in cell viability after 48 hrs celltiter glo assay; type: functional, cell-based
[5] = biological target: T1, Ribosomal protein S6 kinase alpha-3; experiment: Inhibition of RSK2-mediated GSK3alpha Ser21 phosphorylation in TPA-induced human MCF7 cells at 10 nM pretreated for 30 mins by immunoblotting; type: cell-based
[6] = biological target: T1, Ribosomal protein S6 kinase alpha-3
Description: Inhibition of RSK2 assessed as inhibition of substrate phosphorylation using fluorescent peptide substrate by microplate reader assay

Serine/threonine-protein kinase Chk2, sequence (O96017 whole entry): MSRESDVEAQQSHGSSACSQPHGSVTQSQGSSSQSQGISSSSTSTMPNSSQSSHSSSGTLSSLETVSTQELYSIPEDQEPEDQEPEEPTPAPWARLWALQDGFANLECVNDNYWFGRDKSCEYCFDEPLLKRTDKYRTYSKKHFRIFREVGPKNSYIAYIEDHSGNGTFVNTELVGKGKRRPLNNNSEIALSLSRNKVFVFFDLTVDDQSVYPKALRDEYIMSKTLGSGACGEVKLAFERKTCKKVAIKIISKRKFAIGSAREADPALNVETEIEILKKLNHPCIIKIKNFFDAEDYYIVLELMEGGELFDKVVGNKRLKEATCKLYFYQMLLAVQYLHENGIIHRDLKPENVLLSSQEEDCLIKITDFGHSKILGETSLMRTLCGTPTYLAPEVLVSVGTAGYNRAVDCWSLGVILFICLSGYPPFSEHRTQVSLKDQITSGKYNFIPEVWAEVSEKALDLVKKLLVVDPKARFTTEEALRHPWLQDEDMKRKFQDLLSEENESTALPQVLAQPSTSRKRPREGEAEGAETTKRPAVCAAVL
T1 sequence (P51812 whole entry): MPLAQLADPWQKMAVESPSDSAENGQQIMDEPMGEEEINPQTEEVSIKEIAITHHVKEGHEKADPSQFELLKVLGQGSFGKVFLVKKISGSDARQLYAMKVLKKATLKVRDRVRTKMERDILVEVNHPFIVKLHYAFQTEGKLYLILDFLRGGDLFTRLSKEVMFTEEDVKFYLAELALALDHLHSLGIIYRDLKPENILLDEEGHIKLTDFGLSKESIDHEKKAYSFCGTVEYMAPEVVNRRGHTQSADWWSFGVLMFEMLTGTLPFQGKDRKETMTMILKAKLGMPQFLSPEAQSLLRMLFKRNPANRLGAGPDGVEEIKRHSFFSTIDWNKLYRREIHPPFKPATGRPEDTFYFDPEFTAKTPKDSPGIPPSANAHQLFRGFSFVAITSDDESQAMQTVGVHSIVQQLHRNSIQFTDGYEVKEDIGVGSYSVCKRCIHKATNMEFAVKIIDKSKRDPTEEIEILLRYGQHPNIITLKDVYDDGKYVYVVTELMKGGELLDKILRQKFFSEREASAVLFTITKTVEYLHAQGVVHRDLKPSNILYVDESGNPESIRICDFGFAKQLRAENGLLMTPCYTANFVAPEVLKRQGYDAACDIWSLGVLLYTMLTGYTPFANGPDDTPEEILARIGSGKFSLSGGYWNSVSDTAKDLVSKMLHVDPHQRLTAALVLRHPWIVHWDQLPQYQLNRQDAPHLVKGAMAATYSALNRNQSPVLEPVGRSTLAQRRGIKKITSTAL

Structure (SMILES)	inhibition [1] [%]	inhibition [2]	IC50 [3] [µM]	IC50 [4] [µM]	inhibition [5] [%]	IC50 [6] [µM]	Activity (MCF-10A)	Activity (MCF7)
N=C(N)N/N=C/c1c(-c2cc(Cl)sc2Cl)nc2sc(Cl)cn12	–	inactive	> 100	> 100	–	8.26	–	–
N#Cc1ccc(-c2nc3sc(Cl)cn3c2/C=N/NC(=N)N)cc1	–	inactive	> 100	93.5	–	8.55	–	–
N=C(N)N/N=C\c1c(-c2ccc(F)cc2)nc2sccn12	–	inactive	> 100	> 100	–	> 100	–	–
Cc1sc2nc(-c3cccnc3)c(/C=N/NC(=N)N)n2c1C	–	–	> 100	6.58	–	100	–	–
COc1cc([N+](=O)[O-])c(OC)cc1-c1nc2sc3ccccc3n2c1/C=N/NC(=N)N	–	inactive	> 100	> 100	–	10.1	–	–
N=C(N)N/N=C/c1c(-c2ccc(F)c([N+](=O)[O-])c2)nc2sc(Cl)cn12	–	inactive	> 100	41.3	–	3.93	–	–
N=C(N)N/N=C/c1c(-c2cccc([N+](=O)[O-])c2)nc2sc(Cl)cn12	–	–	> 100	> 100	–	6.03	–	–
Cc1cn2c(/C=N/NC(=N)N)c(-c3cccc([N+](=O)[O-])c3)nc2s1	–	–	> 100	59	–	17.5	–	–
Cc1cn2c(/C=N/NC(=N)N)c(-c3cc([N+](=O)[O-])c(Cl)cc3Cl)nc2s1	–	–	> 100	> 100	–	4.53	–	–
N=C(N)N/N=C/c1c(-c2ccc(Cl)c([N+](=O)[O-])c2)nc2ccccn12	–	–	> 100	79	–	2.89	–	–
Cc1cn2c(/C=N/NC(=N)N)c(-c3cc(Cl)sc3Cl)nc2s1	–	–	> 100	> 100	–	26.5	–	–
N=C(N)N/N=C/c1c(-c2ccc(Cl)c([N+](=O)[O-])c2)nc2sc3ccccc3n12	–	–	> 100	> 100	–	7.32	–	–
CCCc1cn2c(/C=N/NC(=N)N)c(-c3ccc(Cl)c([N+](=O)[O-])c3)nc2s1	–	–	> 100	90.5	–	6.43	–	–
Cl.N=C(N)N/N=C/c1c(-c2ccc(Cl)c([N+](=O)[O-])c2)nc2sccn12	–	–	> 100	81	–	3.13	Non-toxic	Active
N=C(N)N/N=C\c1c(-c2ccc(F)c([N+](=O)[O-])c2)nc2sccn12	–	inactive	> 100	77.5	–	53.8	–	–
Cc1cn2c(/C=N/NC(=N)NN)c(-c3ccc(Cl)c([N+](=O)[O-])c3)nc2s1	–	–	> 100	> 100	–	18	–	–
N=C(N)N/N=C/c1c(-c2ccc(Cl)cc2)nc2sc(Cl)cn12	–	–	> 7900	49.3	–	14	–	–
Cl.N=C(N)N/N=C/c1c(-c2ccc(Cl)c([N+](=O)[O-])c2)nc2sc(Cl)cn12	–	–	> 100	90	–	5.85	Non-toxic	Active

Continued, in another order:

inhibition [1] [%]	inhibition [2]	IC50 [3] [µM]	IC50 [4] [µM]	inhibition [5] [%]	IC50 [6] [µM]	Structure (SMILES)	Activity (MCF-10A)	Activity (MCF7)
50	inactive	> 100	56.5	50	2.15	Cl.N=C(N)N/N=C\c1c(-c2ccc([N+](=O)[O-])cc2)nc2sc(F)cn12	Non-toxic	Active
–	inactive	> 100	> 100	–	56.7	N=C(N)N/N=C\c1c(-c2ccc(Br)c([N+](=O)[O-])c2)nc2sccn12	–	–
–	inactive	> 100	90	–	86	N=C(N)N/N=C/c1c(-c2ccc(F)cc2)nc2sc(Cl)cn12	–	–
–	inactive	> 100	> 100	–	12	N=C(N)N/N=C/c1c(-c2cc(Cl)sc2Cl)nc2sc3ccccc3n12	–	–
50	50%	> 100	78.8	50	0.97	N=C(N)N/N=C/c1c(-c2ccc([N+](=O)[O-])cc2)nc2sc(Cl)cn12	–	–
–	inactive	> 100	> 50	–	> 100	Cc1cn2c(/C=N\NC(=N)N)c(-c3ccc(F)cc3)nc2s1	–	–
–	–	> 100	83	–	2.8	Cc1cn2c(/C=N/NC(=N)N)c(-c3ccc([N+](=O)[O-])cc3)nc2s1.Cl	Toxic	Active
–	inactive	> 100	> 100	–	7.8	COc1cc([N+](=O)[O-])c(OC)cc1-c1nc2ccccn2c1/C=N/NC(=N)N	–	–
–	inactive	78.5	18.8	–	30.7	Cc1cn2c(/C=N\NC(=N)N)c(-c3ccc(F)c([N+](=O)[O-])c3)nc2s1	–	–
–	–	> 20	59	–	83	CCc1cn2c(/C=N/NC(=N)N)c(-c3cc([N+](=O)[O-])c(Cl)cc3Cl)nc2s1	–	–
